Counter-ions that a name gives are not always drawn.
What follows are compounds tested against T1, GP IIb IIIa (Homo sapiens, UniProt P05106+P08514) (assay: Fibrinogen-GP IIb IIIa Receptor ELISA Binding Assay (Fg/IIbIIIa)). Conditions: Example 29, Cmpd # 1-105; read-out: IC50 Fg/IIbI.
T1 construct: from tissue; host or cells: outdated human platelets
Experimental: Briefly, microtiter plates are coated with fibrinogen (10 mg/ml) and then blocked with TACTS buffer containing 0.5% bovine serum albumin (BSA). […] After another wash a goat anti-mouse IgG conjugated to horseradish peroxidase is added. […] The reaction is stopped with 1N sulfuric acid and the absorbance at 492 nm is recorded. […] Outdated human platelets are washed 3 times with 10 mM tris-HCl, 150 mM NaCl (TBS), 1 mM EDTA, pH 7.5, and centrifuged at 2000×g to pellet cells. […] The supernatant fraction is collected and the supernatant is loaded onto a concanavalin-A column, previously equilibrated in TBS, 1 mM Ca2 Cl2, 0.1% Triton, 0.05% NaN3 and eluted with 0.2M a-methylmannoside. Fractions are pooled and loaded onto a heparin-agarose column. The flowthrough is collected and concentrated on an Amicon YM 30 filter to a volume of approximately 5-10 ml. The concentrate is then applied to an S-300 column (500 ml) and 6 ml fractions are collected. The GP IIb IIIa containing fractions are collected, pooled, and stored at -80° C. […] The precipitate is spun down in appropriate size bottles at 2000×g. The supernatant is decanted and the precipitate resuspended in 150 mM NaCl (approximately 50% of the original volume). […] The suspension is spun down and the precipitate is resuspended in Tris-saline in a minimal volume (approximately 5% of the original volume). Any remaining insoluble material is spun down at 2000 rpm in a Sorval type centrifuge and the fibrinogen supernatant is decanted and dialyzed overnight at 4° C. against Tris-saline. Characterization of the fibrinogen is by the Bradford protein assay, SDS-PAGE, and/or Western blotting using well known standard procedures. Briefly, 96 well plates are coated (Type Nunc 1 MaxisorpTM) with 10 mg/ml purified fibrinogen ([…]), and allowed to stand overnight at 4° C. […] The plates are again washed three times with PBS/Tween and then […] of sample in TNCNT is added. The mixture is incubated for 15 minutes at room temperature on a plate shaker. […] Fifty ml of this diluted GP IIb IIIa is then added to each well and incubated on a plate shaker at room temperature. After one hour, the plates are washed four times with PBS/Tween and 100 ml of a polyclonal or monoclonal antibody specific for GP IIIa such as AP3 (1 mg/ml) (See e.g. […] After a one hour incubation at room temperature on a plate shaker, the samples are washed 4 times with PBS/Tween. […] The color develops within about 3 to 20 minutes and the reaction is stopped with 100 ml 1M H2 SO4. The optical density at 492 nm vs 405 nm is recorded and IC50 values are determined.

T1 sequence (P08514 32-887 limits assumed): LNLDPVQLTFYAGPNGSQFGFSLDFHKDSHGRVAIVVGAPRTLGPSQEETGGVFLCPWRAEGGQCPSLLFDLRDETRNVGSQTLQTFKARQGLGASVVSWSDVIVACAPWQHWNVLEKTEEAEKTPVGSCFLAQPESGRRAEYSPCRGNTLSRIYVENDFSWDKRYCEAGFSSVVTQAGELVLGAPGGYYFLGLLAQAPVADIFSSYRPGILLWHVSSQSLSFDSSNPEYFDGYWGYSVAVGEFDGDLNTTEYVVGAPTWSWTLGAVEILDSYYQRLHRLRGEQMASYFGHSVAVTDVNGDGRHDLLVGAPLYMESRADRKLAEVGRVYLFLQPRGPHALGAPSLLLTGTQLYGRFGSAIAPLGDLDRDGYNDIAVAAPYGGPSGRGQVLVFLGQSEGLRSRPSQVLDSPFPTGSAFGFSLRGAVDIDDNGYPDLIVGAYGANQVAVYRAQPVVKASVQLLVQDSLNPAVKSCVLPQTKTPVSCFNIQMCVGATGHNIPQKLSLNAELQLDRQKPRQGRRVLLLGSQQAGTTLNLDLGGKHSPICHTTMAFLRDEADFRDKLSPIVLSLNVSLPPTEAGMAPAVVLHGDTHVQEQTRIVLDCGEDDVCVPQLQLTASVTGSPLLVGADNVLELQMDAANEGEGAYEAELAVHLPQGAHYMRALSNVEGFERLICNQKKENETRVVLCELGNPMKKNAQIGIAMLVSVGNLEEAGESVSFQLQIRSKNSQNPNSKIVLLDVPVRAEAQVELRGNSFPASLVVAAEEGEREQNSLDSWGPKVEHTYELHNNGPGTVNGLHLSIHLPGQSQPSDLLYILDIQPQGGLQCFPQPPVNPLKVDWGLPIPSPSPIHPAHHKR
T1 sequence (P08514 891-1039 partner limits assumed): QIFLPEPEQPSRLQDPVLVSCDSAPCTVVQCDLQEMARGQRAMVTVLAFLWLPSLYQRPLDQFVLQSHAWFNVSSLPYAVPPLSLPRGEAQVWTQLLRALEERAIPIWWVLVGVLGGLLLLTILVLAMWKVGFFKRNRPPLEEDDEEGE
T1 sequence (P05106 27-788): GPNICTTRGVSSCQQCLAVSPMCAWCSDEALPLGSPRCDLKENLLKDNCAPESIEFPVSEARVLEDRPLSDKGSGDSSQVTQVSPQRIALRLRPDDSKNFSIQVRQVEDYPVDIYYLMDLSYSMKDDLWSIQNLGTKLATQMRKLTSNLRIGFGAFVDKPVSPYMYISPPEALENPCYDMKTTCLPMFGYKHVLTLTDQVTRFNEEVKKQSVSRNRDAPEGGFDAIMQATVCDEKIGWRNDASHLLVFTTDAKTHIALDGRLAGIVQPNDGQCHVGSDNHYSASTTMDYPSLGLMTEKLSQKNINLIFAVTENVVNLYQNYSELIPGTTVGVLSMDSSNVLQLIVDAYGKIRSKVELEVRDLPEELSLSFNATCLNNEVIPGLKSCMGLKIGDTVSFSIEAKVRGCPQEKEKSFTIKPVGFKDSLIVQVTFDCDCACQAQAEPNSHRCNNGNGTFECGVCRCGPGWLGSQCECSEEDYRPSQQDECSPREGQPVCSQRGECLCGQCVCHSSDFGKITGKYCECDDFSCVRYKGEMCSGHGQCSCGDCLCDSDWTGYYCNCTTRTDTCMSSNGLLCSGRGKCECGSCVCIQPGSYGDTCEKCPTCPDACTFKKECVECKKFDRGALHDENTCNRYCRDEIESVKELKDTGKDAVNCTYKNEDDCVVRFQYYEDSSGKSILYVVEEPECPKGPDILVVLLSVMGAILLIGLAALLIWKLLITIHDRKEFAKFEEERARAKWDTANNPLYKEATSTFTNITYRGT

IC50 | SMILES
8.3 µM | NCCCc1ccc2c(c1)C(=O)N(CCC(=O)O)CC(=O)N2 [Cmpd 1]
28 µM | CN1C(=O)CN(CCC(=O)O)C(=O)c2cc(CCCN)ccc21 [Cmpd 3]
0.466 µM | CN1C(=O)CN(CCC(=O)O)C(=O)c2cc(CCCNC(=N)N)ccc21 [Cmpd 4]
7 µM | CN1C(=O)CN(CCC(=O)O)C(=O)c2cc(C#CCN)ccc21 [Cmpd 5]
0.17 µM | CN1C(=O)CN(CCC(=O)O)C(=O)c2cc(C#CCNC(=N)N)ccc21 [Cmpd 6]
30 µM | CC1C(=O)N(C)c2ccc(CCCN)cc2C(=O)N1CCC(=O)O (stereo not shown) [Cmpd 7]
> 100 µM | CC1C(=O)N(C)c2ccc(CCCNC(=N)N)cc2C(=O)N1CCC(=O)O (stereo not shown) [Cmpd 8]
70 µM | CC1C(=O)N(C)c2ccc(C#CCN)cc2C(=O)N1CCC(=O)O (stereo not shown) [Cmpd 9]
30 µM | CC1C(=O)N(C)c2ccc(C#CCNC(=N)N)cc2C(=O)N1CCC(=O)O (stereo not shown) [Cmpd 10]
600 µM | CN1C(=O)C(c2ccccc2)N(CCC(=O)O)C(=O)c2cc(CCCN)ccc21 (stereo not shown) [Cmpd 11]
2.3 µM | CN1C(=O)C(c2ccccc2)N(CCC(=O)O)C(=O)c2cc(CCCNC(=N)N)ccc21 (stereo not shown) [Cmpd 12]
> 1000 µM | CN1C(=O)C(c2ccccc2)N(CCC(=O)O)C(=O)c2cc(C#CCN)ccc21 (stereo not shown) [Cmpd 13]
25 µM | CN1C(=O)C(c2ccccc2)N(CCC(=O)O)C(=O)c2cc(C#CCNC(=N)N)ccc21 (stereo not shown) [Cmpd 14]
> 100 µM | CN1C(=O)C2CCC(CC(=O)O)N2C(=O)c2cc(CCCN)ccc21 (stereo not shown) [Cmpd 15]
> 100 µM | CN1C(=O)C2CCC(CC(=O)O)N2C(=O)c2cc(CCCNC(=N)N)ccc21 (stereo not shown) [Cmpd 16]
> 100 µM | CN1C(=O)C2CCC(CC(=O)O)N2C(=O)c2cc(CCCN)ccc21 (stereo not shown) [Cmpd 17]
> 100 µM | CN1C(=O)C2CCC(CC(=O)O)N2C(=O)c2cc(CCCNC(=N)N)ccc21 (stereo not shown) [Cmpd 18]
5 µM | CN1C(=O)CN(CCC(=O)O)C(=O)c2cc(CCCCN)ccc21 [Cmpd 19]
6 µM | CN1C(=O)CN(CCC(=O)O)C(=O)c2cc(C#CCCN)ccc21 [Cmpd 21]
> 100 µM | CC1C(=O)N(C)c2ccc(CCCCN)cc2C(=O)N1CCC(=O)O (stereo not shown) [Cmpd 23]
100 µM | CC1C(=O)N(C)c2ccc(CCCCNC(=N)N)cc2C(=O)N1CCC(=O)O (stereo not shown) [Cmpd 24]
> 100 µM | CC1C(=O)N(C)c2ccc(C#CCCN)cc2C(=O)N1CCC(=O)O (stereo not shown) [Cmpd 25]
80 µM | CC1C(=O)N(C)c2ccc(C#CCCNC(=N)N)cc2C(=O)N1CCC(=O)O (stereo not shown) [Cmpd 26]
2.92 µM | NCCCCCc1ccc2c(c1)C(=O)N(CCC(=O)O)CC(=O)N2 [Cmpd 29]
0.204 µM | N=C(N)NCCCCCc1ccc2c(c1)C(=O)N(CCC(=O)O)CC(=O)N2 [Cmpd 30]
1.43 µM | NCCCC#Cc1ccc2c(c1)C(=O)N(CCC(=O)O)CC(=O)N2 [Cmpd 31]
0.254 µM | N=C(N)NCCCC#Cc1ccc2c(c1)C(=O)N(CCC(=O)O)CC(=O)N2 [Cmpd 32]
0.061 µM | CC(CC(=O)O)N1CC(=O)N(C)c2ccc(C#CCCCN)cc2C1=O (stereo not shown) [Cmpd 37, 1-methyl-4-(2-carboxy-1-methylethyl)-7-(5-amino-1-pentyne)-3,4-dihydro-1H-1,4-benzodiazepine-2,5-dione trifluroacetate]

IC50 | SMILES
0.07 µM | CN1C(=O)CN(CCC(=O)O)C(=O)c2cc(CCCCCCN)ccc21 [Cmpd 39]
0.12 µM | CN1C(=O)CN(CCC(=O)O)C(=O)c2cc(CCCCCCNC(=N)N)ccc21 [Cmpd 40]
0.1 µM | CN1C(=O)CN(CCC(=O)O)C(=O)c2cc(C#CCCCCN)ccc21 [Cmpd 41, 1-(methyl)-4-(2-carboxyethyl)-7-(6-amino-1-hexynyl)-3,4-dihydro-1H-1,4-benzodiazepine-2,5-dione trifluroacetate]
0.085 µM | CN1C(=O)CN(CCC(=O)O)C(=O)c2cc(CCc3ccc(CN)cc3)ccc21 [Cmpd 45]
0.265 µM | CN1C(=O)CN(CCC(=O)O)C(=O)c2cc(CCc3ccc(CNC(=N)N)cc3)ccc21 [Cmpd 46]
10 µM | CN1C(=O)CN(CCC(=O)O)C(=O)c2cc(CCc3cccc(N)c3)ccc21 [Cmpd 47]
6 µM | CN1C(=O)CN(CCC(=O)O)C(=O)c2cc(C#Cc3cccc(N)c3)ccc21 [Cmpd 49]
0.2 µM | CN1C(=O)CN(C(CC(=O)O)c2ccccc2)C(=O)c2cc(CCCCCCN)ccc21 (stereo not shown) [Cmpd 51]
0.39 µM | CN1C(=O)CN(C(CC(=O)O)c2ccccc2)C(=O)c2cc(CCCCCCNC(=N)N)ccc21 (stereo not shown) [Cmpd 52]
0.24 µM | CN1C(=O)CN(C(CC(=O)O)c2ccccc2)C(=O)c2cc(C#CCCCCN)ccc21 (stereo not shown) [Cmpd 53]
0.1 µM | CN1C(=O)CN(C(CC(=O)O)c2ccccc2)C(=O)c2cc(C#CCCCCNC(=N)N)ccc21 (stereo not shown) [Cmpd 54]
30 µM | CN1C(=O)CN(CCC(=O)O)C(=O)c2cc(C#Cc3ccc(C#N)cc3)ccc21 [Cmpd 57]
0.062 µM | NCCCC#Cc1ccc2c(c1)C(=O)N(CCC(=O)O)CC(=O)N2Cc1ccc(Cl)cc1 [Cmpd 58]
0.009 µM | N=C(N)NCCCC#Cc1ccc2c(c1)C(=O)N(CCC(=O)O)CC(=O)N2Cc1ccc(Cl)cc1 [Cmpd 59]
0.043 µM | N=C(N)NCCCCC#Cc1ccc2c(c1)C(=O)N(CCC(=O)O)CC(=O)N2Cc1ccc(Cl)cc1 [Cmpd 61]
0.176 µM | NCCCCCc1ccc2c(c1)C(=O)N(CCC(=O)O)CC(=O)N2Cc1ccc(Cl)cc1 [Cmpd 62]
0.05 µM | N=C(N)NCCCCCCc1ccc2c(c1)C(=O)N(CCC(=O)O)CC(=O)N2Cc1ccc(Cl)cc1 [Cmpd 65]
0.2 µM | N=C(N)NCCCCCCCc1ccc2c(c1)C(=O)N(CCC(=O)O)CC(=O)N2Cc1ccc(Cl)cc1 [Cmpd 67]
0.011 µM | COc1ccc(CN2C(=O)CN(CCC(=O)O)C(=O)c3cc(CCCCCNC(=N)N)ccc32)cc1 [Cmpd 79, 1-(p-methoxybenzyl)-4-(2-carboxyethyl)-7-(5-guanidinopentyl)-3,4-dihydro-1H-1,4-benzodiazepine-2,5-dione trifluoroacetate]
0.16 µM | COc1ccc(CN2C(=O)CN(CCC(=O)O)C(=O)c3cc(CCCCCN)ccc32)cc1 [Cmpd 80, 1-(p-methoxybenzyl)-4-(2-carboxyethyl)-7-(5-aminopentyl)-3,4-dihydro-1H-1,4-benzodiazepine-2,5-dione trifluoroacetate]
0.055 µM | N=C(N)NCCCCCCc1ccc2c(c1)C(=O)N(CCC(=O)O)CC(=O)N2Cc1ccc2ccccc2c1 [Cmpd 86, 1-(2-napthyl)methyl-4-(2-carboxyethyl)-7-(6-guanidinohexyl)-3,4-dihydro-1H-1,4-benzodiazepine-2,5-dione trifluoroacetate]
0.031 µM | NCCCCC#Cc1ccc2c(c1)C(=O)N(CCC(=O)O)CC(=O)N2Cc1ccc([N+](=O)[O-])cc1 [Cmpd 87]
0.031 µM | N=C(N)NCCCCC#Cc1ccc2c(c1)C(=O)N(CCC(=O)O)CC(=O)N2Cc1ccc([N+](=O)[O-])cc1 [Cmpd 88]
0.047 µM | N=C(N)NCCCCCCc1ccc2c(c1)C(=O)N(CCC(=O)O)CC(=O)N2Cc1ccc(C(F)(F)F)cc1 [Cmpd 89, 1-(p-trifluoromethylbenzyl)-4-(2-carboxyethyl)-7-(6-guanidinohexyl)-3,4-dihydro-1H-1,4-benzodiazepine-2,5-dione trifluoroacetate]
0.005 µM | NCCCCCCc1ccc2c(c1)C(=O)N(CCC(=O)O)CC(=O)N2Cc1ccc(C(F)(F)F)cc1 [Cmpd 90, 1-(p-trifluoromethylbenzyl)-4-(2-carboxyethyl)-7-(6-aminohexyl)-3,4-dihydro-1H-1,4-benzodiazepine-2,5-dione trifluoroacetate]
0.009 µM | N=C(N)NCCCCCCc1ccc2c(c1)C(=O)N(CCC(=O)O)CC(=O)N2Cc1cccc(Oc2ccccc2)c1 [Cmpd 91, 1-(m-phenoxybenzyl)-4-(2-carboxyethyl)-7-(6-guanidinohexyl)-3,4-dihydro-1H-1,4-benzodiazepine-2,5-dione trifluoroacetate]
0.011 µM | N=C(N)NCCCCCc1ccc2c(c1)C(=O)N(CCC(=O)O)CC(=O)N2Cc1cccc(Oc2ccccc2)c1 [Cmpd 92, 1-(m-phenoxybenzyl)-4-(2-carboxyethyl)-7-(5-guanidinopentyl)-3,4-dihydro-1H-1,4-benzodiazepine-2,5-dione trifluoroacetate]

Reference: US5250679A, “Nonpeptidyl platelet aggregation inhibitors having specificity for the GPIIb III receptor” (Genentech, Inc., priority 1992, dated 1993)
